Assay results reported in PMC9324933 (Chemistry (Weinheim an Der Bergstrasse, Germany), 2022).
pIC50: −log10 of the molar value.

How the values were obtained:
[1] = N-octanol/water partition coefficient; type: physicochemical; settings: RP-TLC, MOPS pH 7.4/acetonitrile
[2] = Redox potentials by cyclic voltammetry and differential pulse voltammetry; type: physicochemical; settings: redox potential versus ferrocene/ferrocenium (FcH/FcH+); acetonitrile, 23 °C
A2780 cells = experiment: Viability of A2780 cells; type: cell-based; settings: read-out: IC50 A2780 cells; human ovarian cancer cells, 48 h, MTT
BL‐2 cells = experiment: Viability of BL-2 cells; type: cell-based; settings: read-out: IC50 BL‐2 cells; human Burkitt's lymphoma cells, 48 h, MTT

LogP [1]: 3.40
E1/2 [2]: 0 mV
pIC50 (A2780 cells): < 4.30
Structure (SMILES): [Fe+2].c1cc[cH-]c1.c1cc[cH-]c1 [FcH, ferrocene]
pIC50 (BL‐2 cells): < 4.30
